# Data as given in PMC2861369 (Current pharmaceutical biotechnology, 2009).
# Target: T1, EH (recombinant mouse sEH) (Mus musculus, UniProt P34914)
# T1 sequence (P34914 1-554): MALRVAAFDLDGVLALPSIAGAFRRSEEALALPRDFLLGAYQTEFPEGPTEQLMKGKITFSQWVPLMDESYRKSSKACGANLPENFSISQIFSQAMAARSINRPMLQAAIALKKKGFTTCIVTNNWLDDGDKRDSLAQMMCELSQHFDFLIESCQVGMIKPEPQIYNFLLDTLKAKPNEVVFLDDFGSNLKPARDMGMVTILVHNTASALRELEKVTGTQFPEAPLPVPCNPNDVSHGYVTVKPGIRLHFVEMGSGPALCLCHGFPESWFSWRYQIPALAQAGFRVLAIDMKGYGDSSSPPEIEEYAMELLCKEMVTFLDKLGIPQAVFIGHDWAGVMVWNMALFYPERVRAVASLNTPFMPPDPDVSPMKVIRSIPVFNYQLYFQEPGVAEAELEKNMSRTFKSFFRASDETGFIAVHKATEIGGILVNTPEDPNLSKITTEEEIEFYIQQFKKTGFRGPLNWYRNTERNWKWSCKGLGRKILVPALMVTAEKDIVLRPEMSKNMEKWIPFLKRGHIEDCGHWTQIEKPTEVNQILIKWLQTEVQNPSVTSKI
# Assay: Effect of EH on the fluorescence of naphthyl derivatives
# Type: binding
# Details: ex 330 nm, EH 0–100 nM
structure (smiles),measurement,value
O=C(Nc1ccc(O)c2ccccc12)NC1CCCCC1 [XIIa],Effect of EH on fluorescence of the naphthyl derivative (in words),appearance of a new peak and a clear enhancement of fluorescence
